Reference: US9303019B2, “Amino-pyrroline derivatives, and use thereof in the prevention and/or treatment of metabolic syndrome” (UNIVERSITE DE STRASBOURG, priority 2012, dated 2016)

Assays:
I1 receptor = I1 receptor (Homo sapiens, UniProt Q9Y2I1); assay: Specific binding assay of the I1 receptor on human platelets with [125I]LNP 911
Procedure: Binding assays were performed at 37° C. using [^125I]LNP 911 as radioligand following the general procedure described but adapted to washed whole platelets (Greney, H.; Urosevic, D.; Schann, S.; Dupuy, L.; Bruban, V.; Ehrhardt, J,-D.; Bousquet, P.; Dontenwill, M. [^125I]2-(2-Chloro-4-iodo-phenylamino)-5-methyl-pyrroline (LNP911), a High-Affinity Radioligand Selective for I1 Imidazoline Receptors. Mol. Pharmacol. 2002, 62, 181-191).
Incubation was initiated through the addition of 900 to 950 μl of platelet suspension at a concentration of 500000/μl in a final volume of 1 ml Tyrode albumin and was performed at 37° C. for 5 min (equilibrium conditions). The competitive assays were conducted using a single concentration of radioligand ([…], 200 000 cpm), in the presence of increasing concentrations of suitable non-labelled ligand. Non-specific binding was determined by the binding of [^125I]LNP 911 in the presence of 100 nM of non-labelled LNP 911 and represented about 10% of total radioactivity when […] of [^125I]LNP 911 were used.
The reaction was halted by rapid vacuum filtration through GF/C fibre glass filters followed by five rapid washings of the filters with 3 ml of ice-cold Tyrode ([…], pH 7.35). Radioactivity was measured using a gamma counter (Wallac 1410).
The competitive assays were analyzed by non-linear regression using the GraphPad programme.
Ki values were determined using the method described by Cheng and Prussof (Cheng, Y. C.; Prusoff, W. H. Relationship between the Inhibition Constant (Ki) and the Concentration of Inhibitor which causes 50 percent Inhibition (I50) of an Enzymatic Reaction. Biochem. Pharmacol. 1973, 22, 3099-3108).

[1] = system: different receptors, transporters and enzymes; assay: Specific binding assay on different receptors, transporters and enzymes; conditions: assayed at 10^−7 M and 10^−5 M
Procedure: Compound 1 was assayed at two concentrations 10^−7 (1.0E-07) M and […] (1.0E-05) on different receptors, transporters and enzymes using the techniques described in the literature and adapted for the laboratory.

Sprague-Dawley rats = assay: Acute i.v. treatment: renal sympathetic nerve activity and hemodynamic parameters in anesthetized rats; assay type: in vivo, rat; conditions: 10 mg/kg i.v.
Procedure: Male Sprague-Dawley rats (10 weeks; Laboratoires Charles River, L'Arbresle, France) were anesthetized with urethane (1.5 g/kg i.p., supplemented with 0.1 g/kg i.v. if necessary) and placed on a hot blanket to maintain rectal temperature at 37° C.
The left renal nerve was carefully isolated and a major branch of the nerve was placed on a bipolar platinum-iridium electrode insulated with silicone gel (604A and B; Wacker Chemie, Munich, Germany). Throughout the experiment the rat was ventilated by means of a tracheal cannula (7-8 ml/kg×72 cycles/min) with a mixture of oxygen and air (˜8%-20%).
Arterial pressure was measured by connecting the arterial catheter to a pressure transducer (TNF-R; Ohmeda, Bilthoven, Holland) coupled to an amplifier (model 13-4615-52; Gould, Cleveland, Ohio).
Renal sympathetic nerve activity (RSNA) was amplified (×50,000), the pass-band filtered (300-3000 Hz; Model P-511J; Grass, Quincy, Mass.) and rectified with a home-built analogue rectifier including a low frequency filter with a cut-off frequency of 150 Hz.
The 2 parameters were continuously recorded using a computer equipped with an analogue-digital converter (model AT-MIO-16; National Instruments, Austin, Tex.) and LabVIEW 5.1 software (National Instruments).
Arterial pressure and RSNA were recorded before (baseline) and after administering compound 1 (10 mg/kg, i.v.). At the end of the recording session, chlorisondamine, a ganglionic blocker, was administered (2.5 mg/kg, i.v.) to evaluate the level of background noise which was then subtracted from all RSNA data for subsequent analyses. At the end of the experiment, the rats were euthanized with an intravenous overdose of sodium pentobarbital.

SHHF rats [2] = assay: Chronic treatment: arterial pressure and heart rate in SHHF rats; assay type: in vivo, rat; conditions: 20 mg/kg/d in drinking water, 12 weeks
Procedure: (§1) Male SHHF rats (spontaneously hypertensive, heart failure) aged 12 weeks were used for this study (Charles River breeding centre, L'Arbresle, France).
The animals were placed in a room with controlled temperature and light, had free access to tap water and were fed a standard diet (A04, SAFE, Augy, France). This study was conducted in agreement with institutional recommendations and the rules laid down by the European Community for the use of experimental animals (L358-86/609/EEC).
(§2) Compound 1 was administered in the drinking water for 12 weeks at a dose of 20 mg/kg/d (n=17). Water consumption was regularly measured to adjust the concentration of compound 1. Non-treated control SHHF rats had access to normal water (n=10).
Body weight, water and food intake were measured every day. […] Three days later, arterial pressure and heart rate were recorded and a glucose tolerance test was performed.
The rats were anesthetized with pentobarbital 50 mg/kg, i.p. (Céa santé animale, Libourne, France) and tracheotomized. […] Arterial pressure was recorded after stabilization with a pressure transducer (Gould P23XL) and recorder (Gould Electronics BS 272, Longjumeau, France). Mean arterial pressure (MAP) was calculated as diastolic pressure plus one third of differential arterial pressure. Heart rate was also recorded from the pressure signal using a Gould Biotach amplifier (model 13-4615-66).

SHHF rats [3] = assay: Chronic treatment: plasma biochemical parameters in SHHF rats; assay type: in vivo, rat; conditions: 20 mg/kg/d, 12 weeks
Procedure: as §1, §2
(§3) Body weight, water and food intake were measured every day. After a treatment time of 12 weeks, blood samples were taken. Three days later, arterial pressure and heart rate were recorded and a glucose tolerance test was performed.
After a treatment time of 12 weeks, blood samples were obtained from the caudal vein of anesthetized rats (2.5% isoflurane, Abbott, Rungis, France) after a fasting time of 18 h.
The blood were centrifuged for 15 minutes at 2000 g and the plasma was frozen to −80° C. until assays of glucose, total cholesterol, HDL and LDL cholesterol and fatty acids. These assays were performed at the following centre: Plateau Technique Biologique des Hôpitaux Universitaires de Strasbourg (Advia 2400, Bayer HealthCare).
Insulin, leptin, adiponectin and glucagon were assayed using ELISA kits (insulin: Mercodia, Uppsala, Sweden; leptin: Yanaihara Institute Inc., Shizuoka, Japan; adiponectin: B-Bridge International, Mountain View, USA; glucagon: Gentaur, Kampenhout, Belgium) following the supplier's recommendations.

SHHF rats [4] = assay: Chronic treatment: body weight and food consumption in SHHF rats; assay type: in vivo, rat; conditions: 20 mg/kg/d
Procedure: as §1, §2, §3

Sequence of I1 receptor (Q9Y2I1 2-1504 limits assumed): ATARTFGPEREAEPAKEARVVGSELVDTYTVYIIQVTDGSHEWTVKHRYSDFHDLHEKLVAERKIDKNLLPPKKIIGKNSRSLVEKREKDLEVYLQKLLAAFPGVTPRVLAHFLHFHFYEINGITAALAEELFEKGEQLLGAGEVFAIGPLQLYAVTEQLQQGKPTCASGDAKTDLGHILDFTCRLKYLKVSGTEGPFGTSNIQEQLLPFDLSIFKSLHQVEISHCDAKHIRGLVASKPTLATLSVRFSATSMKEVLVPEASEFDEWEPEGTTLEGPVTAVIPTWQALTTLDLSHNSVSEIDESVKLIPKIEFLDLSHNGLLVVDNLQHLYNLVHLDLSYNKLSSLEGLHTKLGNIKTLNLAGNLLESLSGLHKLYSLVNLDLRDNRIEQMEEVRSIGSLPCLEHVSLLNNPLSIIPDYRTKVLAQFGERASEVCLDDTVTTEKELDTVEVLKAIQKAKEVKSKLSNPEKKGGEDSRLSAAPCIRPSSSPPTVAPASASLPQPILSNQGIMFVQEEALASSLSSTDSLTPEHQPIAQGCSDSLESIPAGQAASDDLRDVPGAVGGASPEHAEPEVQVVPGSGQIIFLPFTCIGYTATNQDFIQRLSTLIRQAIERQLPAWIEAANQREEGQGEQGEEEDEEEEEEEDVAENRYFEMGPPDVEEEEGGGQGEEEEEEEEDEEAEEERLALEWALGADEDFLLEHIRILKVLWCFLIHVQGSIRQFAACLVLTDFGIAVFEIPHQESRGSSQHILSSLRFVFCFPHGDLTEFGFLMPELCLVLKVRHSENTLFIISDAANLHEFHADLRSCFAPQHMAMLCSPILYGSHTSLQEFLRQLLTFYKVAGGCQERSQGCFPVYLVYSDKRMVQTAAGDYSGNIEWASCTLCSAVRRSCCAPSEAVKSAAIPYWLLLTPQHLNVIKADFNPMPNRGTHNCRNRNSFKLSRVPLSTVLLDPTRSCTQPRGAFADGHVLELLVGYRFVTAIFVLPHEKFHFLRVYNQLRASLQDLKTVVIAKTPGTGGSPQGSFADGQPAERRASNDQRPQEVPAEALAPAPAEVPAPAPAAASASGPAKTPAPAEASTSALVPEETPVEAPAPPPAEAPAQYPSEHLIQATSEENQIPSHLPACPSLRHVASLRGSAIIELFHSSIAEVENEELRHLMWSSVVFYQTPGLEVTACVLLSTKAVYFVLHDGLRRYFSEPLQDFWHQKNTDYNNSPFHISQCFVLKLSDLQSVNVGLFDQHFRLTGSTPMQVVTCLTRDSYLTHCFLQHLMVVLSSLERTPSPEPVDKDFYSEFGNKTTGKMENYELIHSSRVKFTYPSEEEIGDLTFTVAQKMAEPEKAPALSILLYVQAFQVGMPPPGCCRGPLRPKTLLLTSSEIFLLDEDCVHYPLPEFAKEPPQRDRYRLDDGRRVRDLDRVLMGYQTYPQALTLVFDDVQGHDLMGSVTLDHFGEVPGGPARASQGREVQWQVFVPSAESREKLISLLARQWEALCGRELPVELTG

For `Cc1c(Cl)cccc1NC1=NCC(C)C1.Cl` (centres unmarked) [Compound 1, (3-Chloro-2-methyl-phenyl)-(4-methyl-4,5-dihydro-3H-pyrrol-2-yl)-amine hydrochloride], the Ki (I1 receptor) was 8.1 nM, the “affinity for more than 50 receptors, transporters and enzymes” value ([1]; hydrochloride) was “does not exhibit any affinity similar to the affinity for the imidazoline receptor I1” and the “affinity for more than 50 receptors, transporters and enzymes” value ([1]; listed as compound 1, hydrochloride) was “does not bind to any of the assayed receptors, transporters and enzymes with affinity similar”. For the same compound, the “duration of the reduction in renal sympathetic activity, arterial pressure and heart rate” value (Sprague-Dawley rats) was “more than one hour”, the “reduction in renal sympathetic activity” value (Sprague-Dawley rats; urethane-anesthetized rats) was 50% and the “diastolic arterial pressure (DAP)” value (Sprague-Dawley rats; vs. 83.2±4 baseline) was 58.6±3.4 mmHg. The “mean arterial pressure (MAP)” value (Sprague-Dawley rats; vs. 108.±3.4 baseline) was 77.4±3.6 mmHg, the “systolic arterial pressure (SAP)” value (Sprague-Dawley rats; vs. 141.7±2.3 baseline) was 105.3±3 mmHg and the heart rate (Sprague-Dawley rats; vs. 331.4±14 baseline) was 288.4±10.3 bpm. For the same compound, the arterial pressure (SHHF rats [2]; control 176±6) was 153±7 mmHg, the heart rate (SHHF rats [2]; control 361±8) was 367±6 bpm and the fasting glycaemia (SHHF rats [3]) was “not affected”. For the same compound, the free fatty acids (SHHF rats [3]) was “not affected”, the total plasma cholesterol (SHHF rats [3]; fasting 18 h, control 3.8±0.18) was 2.7 ± 0.09 mmol/L and the plasma triglycerides (SHHF rats [3]; fasting 18 h, control 4.59±0.23) was 3.8 ± 0.25 mmol/L. For the same compound, the plasma adiponectin (SHHF rats [3]; control 5.54±0.14) was 10.6 ± 0.52 µg/mL, the fasting plasma insulin (SHHF rats [3]; control 46.8±3.7) was 15.2 ± 2 ng/mL and the HOMA-IR index (SHHF rats [3]; control 534±38) was 110±14. The body weight (SHHF rats [4]; after 9 weeks until end of treatment) was “lower body weight than the controls” and the food consumption (SHHF rats [4]; after one week's treatment) was “below that of the controls”.
